Results reported in ChEMBL document CHEMBL1150898, “Synthesis and dopamine receptor selectivity of the benzyltetrahydroisoquinoline, (R)-(+)-nor-roefractine” (J Nat Prod, 1998).

Tests used:
D(2) dopamine receptor = D(2) dopamine receptor (Rattus norvegicus, UniProt P61169); experiment: Displacement of [3H]raclopride from rat striatal dopamine D2 receptor
D(1A) dopamine receptor = D(1A) dopamine receptor (Rattus norvegicus, UniProt P18901); experiment: Displacement of [3H]SCH-23390 from rat striatal dopamine D1 receptor
Rattus norvegicus = species: Rattus norvegicus; experiment: Selectivity for rat striatal dopamine D2 receptor over rat striatal dopamine D1 receptor

D(1A) dopamine receptor, sequence (P18901 whole entry): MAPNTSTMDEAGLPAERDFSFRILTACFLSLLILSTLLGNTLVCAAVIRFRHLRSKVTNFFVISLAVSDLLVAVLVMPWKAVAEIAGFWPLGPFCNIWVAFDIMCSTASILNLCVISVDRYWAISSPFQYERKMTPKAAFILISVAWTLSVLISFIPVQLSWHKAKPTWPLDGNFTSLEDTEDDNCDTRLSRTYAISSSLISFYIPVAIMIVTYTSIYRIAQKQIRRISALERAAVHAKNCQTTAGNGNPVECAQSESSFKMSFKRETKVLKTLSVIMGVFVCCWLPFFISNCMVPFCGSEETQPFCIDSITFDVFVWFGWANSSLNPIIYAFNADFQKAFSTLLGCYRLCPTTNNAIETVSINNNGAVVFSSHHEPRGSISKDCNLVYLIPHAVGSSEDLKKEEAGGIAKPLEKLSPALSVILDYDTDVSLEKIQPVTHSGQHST
D(2) dopamine receptor, sequence (P61169 whole entry): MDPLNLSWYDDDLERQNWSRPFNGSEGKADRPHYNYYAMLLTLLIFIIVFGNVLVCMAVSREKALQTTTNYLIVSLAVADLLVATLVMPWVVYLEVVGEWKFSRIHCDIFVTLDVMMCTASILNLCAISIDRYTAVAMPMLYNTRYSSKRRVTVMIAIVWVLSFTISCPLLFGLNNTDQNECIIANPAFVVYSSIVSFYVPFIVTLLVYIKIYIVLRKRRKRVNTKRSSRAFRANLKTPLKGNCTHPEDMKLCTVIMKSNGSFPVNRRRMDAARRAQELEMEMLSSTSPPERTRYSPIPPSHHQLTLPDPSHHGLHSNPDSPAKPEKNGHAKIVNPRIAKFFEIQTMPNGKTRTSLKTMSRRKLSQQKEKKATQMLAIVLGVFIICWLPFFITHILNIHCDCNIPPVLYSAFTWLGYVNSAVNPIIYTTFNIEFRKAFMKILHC

Selectivity ratio (Rattus norvegicus)	Compound	IC50 (D(2) dopamine receptor) [nM]	IC50 (D(1A) dopamine receptor) [nM]
	COc1cc2c(cc1O)[C@@H](Cc1ccc(O)cc1)NCC2	130	240
6	COc1ccc(C[C@H]2NCCc3cc(O)c(OC)cc32)cc1 [NOR-ROEFRACTINE]	5000	32900
